The values that follow come from patent US20040081964A1, “Gene and sequence variation associated with sensing carbohydrate compounds and other sweeteners” (priority 2002, published 2004).

Read-outs that look alike come from different tables or passages of the source.

Assay [1] concerns mice from inbred strains with two different haplotypes of the Sac gene. Conditions: strain preferences known from Lush et al., cited from earlier work.
Assay [2] deals with mouse strains with 'B6-like' or '129-like' haplotype of Gpr98. The source says: (§1) Preferences for 10% ethanol for the same mouse strains were studied as described in Abstr. of the 23th RSA Meeting (June 2000, Denver, Colo.).
The test system of a further assay is 129.B6-Sac congenic mice.
Text: as §1

Where [3] appears, read: strains with the 129-like haplotype of Sac, p=0.0015 vs B6-like.
[4] abbreviates: strains with the B6-like haplotype of Sac.

Take `OC[C@H]1O[C@@](CO)(O[C@H]2O[C@H](CO)[C@@H](O)[C@H](O)[C@H]2O)[C@@H](O)[C@@H]1O` [sucrose]: the figures for the sweetener preference in assay [1] (setting [3]) and in assay [1] (setting [4]) were 54±1% and 86±6%, respectively.
Turning to `CCO` [ethanol], the “preference for 10% ethanol” value in assay [2] (strains with the '129-like' haplotype, n=10 strains, p<0.05, one-tailed t-test) was found to be 12±2%; in assay [2] (strains with the 'B6-like' haplotype, n=14 strains), 20±4%. For the same molecule, the “consumption of 10% ethanol solution” value was 1.50 ± 0.15 mL/day in the assay with 129.B6-Sac congenic mice (congenic mice homozygous for the 194-kb donor fragment from the B6 strain) and 1.19 ± 0.11 mL/day in the assay with 129.B6-Sac congenic mice (congenic mice without the donor fragment, p<0.05, one-tailed t-test).
For `O=C1NS(=O)(=O)c2ccccc21` [saccharin], the sweetener preference in assay [1] (setting [3]) was 57±2%; in assay [1] (setting [4]), 82±4%.
